≈ marks a conversion by molar mass, not a printed value.
Experiments:
[1] = test system: M. tuberculosis (Mtb) H37Rv; assay: Microplate Alamar Blue Assay (MABA), GAS media, replicating Mtb; format: cell-based, Mycobacterium tuberculosis; settings: Mycobacterium tuberculosis; GAS (glycerol-alanine-salt) media, replicating H37Rv; read-out: GAS media: replicating H37Rv Mtb: MIC 90
[2] = test system: M. tuberculosis (Mtb) H37Rv; assay: Microplate Alamar Blue Assay (MABA), 7H12 media, replicating Mtb; format: cell-based; settings: Mycobacterium tuberculosis, 7H12 media (no glycerol), read-out: 7H12 media: Replicating H37Rv Mtb: MIC 90
[3] = test system: VERO kidney epithelial cells; assay: VERO toxicity assessment; settings: Chlorocebus sabaeus, Vero, read-out: VERO: IC50

Structure (SMILES)	MIC90 [1]	MIC90 [2]	IC50 [3]
CCc1nc2sc(C)cn2c1C(=O)OC [ND-009743]	< 32 µM	< 32 µM	< 32 µM
COC(=O)c1c(C)nc2sc(C)c(C)n12 [ND-009744]	< 32 µM	< 32 µM	< 32 µM
CCc1nc2sc(C)cn2c1C(=O)O [ND-009745]	< 32 µM	< 32 µM	< 32 µM
Cc1cn2c(C(=O)NCc3ccccc3)c(C)nc2s1 [ND-009749]	< 2 µM	< 2 µM	< 32 µM
Cc1cn2c(C(=O)NCc3cccc(F)c3)c(C)nc2s1 [ND-009762]	< 2 µM	< 2 µM	< 32 µM
COc1cccc(CNC(=O)c2c(C)nc3sc(C)cn23)c1 [ND-009763]	< 2 µM	< 2 µM	< 32 µM
COc1ccc(COC(=O)c2c(C)nc3sc(C)cn23)cc1 [ND-010050]	2 to 10 µM	10 to 20 µM (≈ 3.16 to 6.33 µg/mL)	< 32 µM
Cc1nn2c(C(=O)OCc3ccccc3)c(C)nc2s1 [ND-010475]	< 2 µM	10 to 20 µM (≈ 2.87 to 5.75 µg/mL)	< 32 µM
Cc1cn2c(C(=O)NCc3ccccc3Cl)c(C)nc2s1 [ND-020001]	< 2 µM	< 2 µM	< 32 µM
Cc1cn2c(C(=O)NCc3cc(F)ccc3F)c(C)nc2s1 [ND-020002]	< 2 µM	< 2 µM	< 32 µM
Cc1cn2c(C(=O)NCc3ccc(F)cc3)c(C)nc2s1 [ND-020003]	< 2 µM	2 to 10 µM (≈ 0.607 to 3.03 µg/mL)	< 32 µM
Cc1cn2c(C(=O)NCc3cc(F)cc(F)c3)c(C)nc2s1 [ND-020004]	< 2 µM	< 2 µM	< 32 µM
Cc1cn2c(C(=O)NCc3cc(Cl)cc(Cl)c3)c(C)nc2s1 [ND-020005]	< 2 µM	< 2 µM	< 32 µM
Cc1cn2c(C(=O)NCc3ccc(OC(F)(F)F)cc3)c(C)nc2s1 [ND-020006]	< 2 µM	< 2 µM	< 32 µM
Cc1cn2c(C(=O)NCc3cccc(OC(F)(F)F)c3)c(C)nc2s1 [ND-020007]	< 2 µM	< 2 µM	< 32 µM
Cc1cn2c(C(=O)NCc3cccc(C(F)(F)F)c3)c(C)nc2s1 [ND-020008]	< 2 µM	< 2 µM	< 32 µM

Structure (SMILES)	MIC90 [1]	MIC90 [2]	IC50 [3]
Cc1cn2c(C(=O)NCc3ccc(C(F)(F)F)cc3)c(C)nc2s1 [ND-020009]	< 2 µM	< 2 µM	< 32 µM
CCc1nc2sc(C)cn2c1C(=O)NCc1ccc(C(F)(F)F)cc1 [ND-020010]	< 2 µM	< 2 µM	< 32 µM
CCc1nc2sc(Cl)cn2c1C(=O)NCc1ccc(C(F)(F)F)cc1 [ND-020011]	< 2 µM	2 to 10 µM (≈ 0.776 to 3.88 µg/mL)	< 32 µM
Cc1nc2sc(Cl)cn2c1C(=O)NCc1ccc(C(F)(F)F)cc1 [ND-020012]	< 2 µM	< 2 µM	< 32 µM
Cc1nc2sc(C)c(C)n2c1C(=O)NCc1ccc(C(F)(F)F)cc1 [ND-020013]	2 to 10 µM	10 to 20 µM (≈ 3.67 to 7.35 µg/mL)	< 32 µM
Cc1cn2c(C(=O)NCc3cccc(Cl)c3)c(C(F)(F)F)nc2s1 [ND-020014]	< 2 µM	2 to 10 µM (≈ 0.748 to 3.74 µg/mL)	< 32 µM
Cc1nc2sc(C(F)(F)F)cn2c1C(=O)NCc1ccc(Cl)cc1 [ND-020015]	< 2 µM	2 to 10 µM (≈ 0.748 to 3.74 µg/mL)	< 32 µM
Cc1cn2c(C(=O)NCc3ncc(C(F)(F)F)cc3Cl)c(C)nc2s1 [ND-020016]	< 2 µM	< 2 µM	< 32 µM
COc1cc(CNC(=O)c2c(C)nc3sc(C)cn23)ccn1 [ND-020017]	< 2 µM	2 to 10 µM (≈ 0.633 to 3.16 µg/mL)	< 32 µM
Cc1cn2c(C(=O)NCc3ccc4c(c3)OCC4)c(C)nc2s1 [ND-020018]	< 2 µM	< 2 µM	< 32 µM
Cc1cn2c(C(=O)NCc3cccc(N(C)C)c3)c(C)nc2s1 [ND-020019]	< 2 µM	< 2 µM	< 32 µM
Cc1cn2c(C(=O)NCc3ccc(N(C)C)cc3)c(C)nc2s1 [ND-020020]	< 2 µM	< 2 µM	< 32 µM
CNc1ccc(CNC(=O)c2c(C)nc3sc(C)cn23)cc1 [ND-020021]	< 2 µM	< 2 µM	< 32 µM
Cc1nc2sc(Cl)cn2c1C(=O)NCc1ccc(N(C)C)cc1 [ND-020022]	< 2 µM	< 2 µM	< 32 µM
CCc1nc2sc(Cl)cn2c1C(=O)NCc1ccc(N(C)C)cc1 [ND-020023]	< 2 µM	< 2 µM	< 32 µM

— US9605002B2, “5,5-heteroaromatic anti-infective compounds” (priority 2012, dated 2017)
